Experiment [1] concerns bile salt stimulated lipase (BSSL). Description: Intestinal lipolysis of triolein emulsions by bile salt stimulated lipase. It is filed as biochemical, human. An excerpt: (§1) The compounds have been tested in vitro in different experimental conditions for their ability to promote the action of three major lipolytic enzymes of the digestive tract, i.e., gastric lipase, colipase-dependent pancreatic lipase, bile salt stimulated lipase (BSSL), and their isoforms and variants.
(§2) Different lipidic emulsions have been prepared by sonication of a mixture of triolein (TO) (98.7%), cholesterol (0.5%) and phospholipids (0.8%).
(§3) The lipolysis tests have been carried out in vitro in conditions that mimic the physiology of the human digestive tract, either healthy or with pancreatic insufficiency (PI).
[…] Several variants of BSSL have been tested, numbered 1 to 8.
(§4) Lipolysis by the three main digestive tract lipases has also been tested in more complex conditions, i.e. in the presence of lipidic emulsions with a mixture of proteins plus lactose added in proportions that are found in normal or medically assisted nutrition.

For a further experiment, the system named is gastric lipase. Description: Gastric lipolysis of triolein emulsions stabilized by phospholipids, with purified gastric lipases or gastric juices. It is filed as biochemical, human.
Source text: as §1, §2, §3
Gastric lipolysis in the presence of gastric lipase has been carried out with purified lipases or gastric juices from different subjects at pH 5.40, at 37° C. for 60 minutes with a gastric lipase (U/mL)/lipids (micromoles of TO) ratio of 2.
as §4

For experiment [2], the target named is T1, colipase dependent pancreatic lipase (Sus scrofa, UniProt P00591).
T1 sequence (P00591 1-450): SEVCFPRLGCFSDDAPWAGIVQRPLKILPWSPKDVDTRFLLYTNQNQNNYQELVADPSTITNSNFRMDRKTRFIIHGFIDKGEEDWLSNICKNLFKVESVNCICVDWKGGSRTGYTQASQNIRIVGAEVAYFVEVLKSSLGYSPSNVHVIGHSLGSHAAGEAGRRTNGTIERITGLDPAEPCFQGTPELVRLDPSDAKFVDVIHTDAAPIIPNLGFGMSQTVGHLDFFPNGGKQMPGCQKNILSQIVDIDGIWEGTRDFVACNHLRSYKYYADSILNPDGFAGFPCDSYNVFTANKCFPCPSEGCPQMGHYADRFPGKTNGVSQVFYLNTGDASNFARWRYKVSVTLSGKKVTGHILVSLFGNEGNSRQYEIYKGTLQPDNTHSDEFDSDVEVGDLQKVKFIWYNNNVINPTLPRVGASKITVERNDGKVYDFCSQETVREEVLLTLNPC
T1 sequence (P02703 23-112 partner): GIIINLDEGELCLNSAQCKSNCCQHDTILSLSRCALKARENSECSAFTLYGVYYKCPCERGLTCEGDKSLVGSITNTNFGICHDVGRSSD
The experiment is described as follows: Intestinal lipolysis of triolein emulsions by colipase dependent pancreatic lipase or pancreatine. It is filed as biochemical, pig. Conditions: for yield of pancreatic lipolysis (percentage of hydrolysis) compared with PC P/O emulsion: normal physiological conditions, two forms of pig pancreatic lipase (pure lipase or powder of pancreas), FIG. 3.
Source text: as §1, §2, §3
Intestinal lipolysis in the presence of colipase dependent pancreatic lipase (lipase/colipase 1/1 molar ratio) or of pig pancreatic extract (pancreatine) was conducted at pH […] at 37° C. for 15 minutes, with a pancreatic lipase (U/mL)/micromoles of TO ratio of 20, and in the presence of pig bile in sufficient quantity for a bile salt concentration of 2 or 8 mM.
as §4

The conditions of experiment [3]: cited from earlier work.
Setting [4] is: conditions of pancreatic insufficiency, mixture of pure bile salts, FIG. 6.
Setting [5] is: gastric juices of different subjects, irrespective of the origin of gastric juice, FIG. 2.
[6] abbreviates: gastric juices of subject, pH 5.40, 37° C., 60 minutes, FIG. 1.

For DHA phosphatidylethanolamine [PE DHA], the “yield of lipolysis by BSSL (percentage of hydrolysis) compared with PC P/O emulsion” value was “significantly higher” in experiment [1] (setting [4]) and “significantly higher” in experiment [1] (normal conditions, FIG. 4).

Regarding “egg-derived lysophosphatidylcholine [LPCO]”, the “yield of gastric lipolysis (percentage of hydrolysis) compared with the control CT emulsion” value in the experiment on gastric lipase (setting [5]) and with gastric lipase (setting [6]) was “significantly higher” in each case. The “yield of lipolysis by BSSL (percentage of hydrolysis) compared with PC P/O emulsion” value in experiment [1] (setting [4]) was “significantly higher”; in experiment [1] (normal conditions, FIG. 4), “significantly higher”.

Consider `CCCCCCCC/C=C\CCCCCCCC(=O)OC[C@@H](O)COP(=O)(O)O` [LPAo, oleyl lysophosphatidic acid], for which the “yield of gastric lipolysis (percentage of hydrolysis) compared with the control CT emulsion” value in the experiment on gastric lipase (setting [6]) is “significantly higher”.

As for lysophosphatidylserine [LPS], the “yield of pancreatic lipolysis (percentage of hydrolysis) compared with PC P/O emulsion” value in experiment [2] was “significantly higher”.

With lysophosphatidylinositol [LPI], the “yield of pancreatic lipolysis (percentage of hydrolysis) compared with PC P/O” value in experiment [2] (conditions of pancreatic insufficiency, purified lipase, intestinal pH values typical of pancreatic insufficiency, FIG. 5) is on record as “significantly higher”. Besides, the “yield of pancreatic lipolysis (percentage of hydrolysis) compared with PC P/O emulsion” value in experiment [2] is on record as “significantly higher”. The “activator effect in the presence of a mixture of protein plus lactose” value is listed as “identical or even maximized” in experiment [2] (pancreatic lipase, complex environment compared with simple emulsion); “identical or even maximized” in the experiment on gastric lipase (gastric lipase, complex environment compared with simple emulsion); “identical or even maximized” in experiment [1] (BSSL, complex environment compared with simple emulsion). The “effect of the dose of LPI on the yield of gastric lipolysis of the LHO emulsion” value in the experiment on gastric lipase (LPI 0.1, 0.4 and 0.8% of total lipids, total phospholipids 0.8% of total lipids, gastric juices of subjects, FIG. 12) was “increase with increasing concentrations of LPI”. In addition, the “yield of gastric lipolysis (percentage of hydrolysis) compared with PC P/O and complex PC P/O” value in the experiment with gastric lipase (different human gastric juices, simple emulsions and complex emulsions (lactose and milk proteins), FIG. 7) is “significantly higher”. The “yield of gastric lipolysis (percentage of hydrolysis) compared with the control CT emulsion” value with gastric lipase (setting [5]) and in the experiment on gastric lipase (setting [6]) was “significantly higher” in each case. The “quantity at which the activator effect seems optimal” value in the experiment with gastric lipase (gastric lipolysis of LHO/LPI emulsions, dose dependent) was 0.8 % of total lipids. In addition, the “effect on gastric lipase degraded at its N-terminal end (yield of gastric lipolysis vs CT and/or PC P/O)” value in the experiment on gastric lipase (purified gastric lipases or juices of different subjects with different degrees of N-terminal degradation, FIG. 10) was “reactivates degraded gastric lipase”. Besides, the “yield of lipolysis by BSSL (percentage of hydrolysis) compared with PC P/O emulsion” value in experiment [1] (setting [4]) is “significantly higher”; in experiment [1] (normal conditions, FIG. 4), “significantly higher”. The “activator effect on different variants of BSSL (1 to 8) compared with PC P/O” value in experiment [1] (normal conditions (A) or conditions of pancreatic insufficiency (B), efficacy varies with type of BSSL, FIG. 11) was “confirmed”. Besides, the “yield of lipolysis by BSSL (percentage of hydrolysis) compared with PC P/O and complex PC P/O” value in experiment [1] (purified human BSSL, pH 7.00, bile salts 8 mM (normal) or 2 mM (pancreatic insufficiency), with or without lactose and milk proteins, FIG. 9) is “significantly higher”.

B1: recombinant gastric lipase: recombinant dog gastric lipase (Merispase, Meristem) (protein, UniProt P80035 20-398, looked up)
Gastric triacylglycerol lipase: LFGKLHPTNPEVTMNISQMITYWGYPAEEYEVVTEDGYILGIDRIPYGRKNSENIGRRPVAFLQHGLLASATNWISNLPNNSLAFILADAGYDVWLGNSRGNTWARRNLYYSPDSVEFWAFSFDEMAKYDLPATIDFILKKTGQDKLHYVGHSQGTTIGFIAFSTNPKLAKRIKTFYALAPVATVKYTETLLNKLMLVPSFLFKLIFGNKIFYPHHFFDQFLATEVCSRETVDLLCSNALFIICGFDTMNLNMSRLDVYLSHNPAGTSVQNVLHWSQAVKSGKFQAFDWGSPVQNMMHYHQSMPPYYNLTDMHVPIAVWNGGNDLLADPHDVDLLLSKLPNLIYHRKIPPYNHLDFIWAMDAPQAVYNEIVSMMGTDNK
Turning to B1, in experiment [3] (administered together with pancreatic extracts, in 7 of the 11 patients studied), the “increase of the absorption level of lipids” value is given as 17%. For the same molecule, the “rate of absorption of lipids” value in experiment [3] (subjects suffering from cystic fibrosis, alone, 600 mg/day, 28% without supplement) is on record as 50%.

The values above are taken from patent publication US20100196586A1, “FOODSTUFF COMPOSITION TO IMPROVE DIGESTIBILITY OF FOODSTUFF LIPIDS” (ISL-INNOVATION SANTE LIPIDES, priority 2007, published 2010).
